Reference: article PMC8592027, “Structure-Guided Design of D-Galactal Derivatives with High Affinity and Selectivity for the Galectin-8 N-Terminal Domain” (ACS Medicinal Chemistry Letters, 2021)
Read-outs that look alike come from different tables or passages of the source.

Experiments:
[1] = target: T1, galectin-8C (C-terminal domain) (Homo sapiens, UniProt O00214); test: Competitive fluorescence polarization assay, galectin-8C; type: binding; details: mean ± SEM of n = 4–8
T1 construct: galectins (N = N-terminal domain, C = C-terminal domain)
T1 sequence (O00214 187-317 limits assumed): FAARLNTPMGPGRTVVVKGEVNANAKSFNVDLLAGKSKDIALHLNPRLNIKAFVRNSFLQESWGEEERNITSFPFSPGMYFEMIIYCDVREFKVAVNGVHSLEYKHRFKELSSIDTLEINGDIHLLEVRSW

galectin-3 = target: T2, galectin-3 (Homo sapiens, UniProt P17931); test: Competitive fluorescence polarization assay, galectin-3; type: binding; details: mean ± SEM of n = 4–8
T2 construct: made in house
Experimental: (§1) 1. Competitive fluorescence polarization experiments:
(§2) Human galectins -1, -3, -4N, -4C, -7, -8N, -9N, and -9C were expressed and purified as previously described 30,41. Fluorescence polarisation experiments were performed using the PHERAstar FS plat e reader (software version 2.10 R3), and the fluorescence anisotropy of fluorescein tagged probes was measured by excitation at 485 nm and emission at 520 nm. The specific conditions for galectins -1, -3, -4N, -4C, -7, -8N, -9N, and -9C were kept as report ed30,41,42. The synthesised compounds were dissolved in pure DMSO at 20 mM concentration and diluted in PBS to 3-6 different concentrations, and each concentration was tested in duplicate. The highest inhibitor concentrations tested were 1.5 mM. The

[2] = target: T3, galectin-9C (C-terminal domain) (Homo sapiens, UniProt O00182); test: Competitive fluorescence polarization assay, galectin-9C; type: binding; details: mean ± SEM of n = 4–8
T3 construct: galectins (N = N-terminal domain, C = C-terminal domain); made in house
Experimental: as §1, §2

[3] = target: T4, galectin-4N (N-terminal domain) (Homo sapiens, UniProt P56470); test: Competitive fluorescence polarization assay, galectin-4N; type: binding; details: mean ± SEM of n = 4–8
T4 construct: galectins (N = N-terminal domain, C = C-terminal domain); made in house
T4 sequence (P56470 19-150 limits assumed): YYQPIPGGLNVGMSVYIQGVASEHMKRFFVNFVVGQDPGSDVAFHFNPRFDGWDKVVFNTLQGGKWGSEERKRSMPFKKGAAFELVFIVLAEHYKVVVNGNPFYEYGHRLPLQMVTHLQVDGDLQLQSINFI
Experimental: as §1, §2

galectin-1 = target: T5, galectin-1 (Homo sapiens, UniProt P09382); test: Competitive fluorescence polarization assay, galectin-1; type: binding; details: mean ± SEM of n = 4–8
T5 construct: made in house
Experimental: as §1, §2

[4] = target: T6, galectin-9N (N-terminal domain) (Homo sapiens, UniProt O00182); test: Competitive fluorescence polarization assay, galectin-9N; type: binding; details: mean ± SEM of n = 4–8
T6 construct: galectins (N = N-terminal domain, C = C-terminal domain); made in house
Experimental: as §1, §2

[5] = target: T7, galectin-8N (galectin-8 N-terminal domain) (Homo sapiens, UniProt O00214); test: Competitive fluorescence polarization assay, galectin-8N; type: binding; details: for Kd: mean ± SEM of n = 4–8
T7 construct: selective ligand for the galectin-8 N-terminal domain (galectin-8N); made in house
T7 sequence (O00214 19-152 limits assumed): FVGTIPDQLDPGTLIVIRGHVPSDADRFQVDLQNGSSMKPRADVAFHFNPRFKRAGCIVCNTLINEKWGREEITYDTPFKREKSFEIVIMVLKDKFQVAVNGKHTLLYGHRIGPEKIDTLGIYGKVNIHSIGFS
Experimental: All synthesized D-galactal derivatives had higher binding affinities for galectin-8N than D-galactal 3.
as §1, §2

[6] = target: T8, galectin-4C (C-terminal domain) (Homo sapiens, UniProt P56470); test: Competitive fluorescence polarization assay, galectin-4C; type: binding; details: mean ± SEM of n = 4–8
T8 construct: galectins (N = N-terminal domain, C = C-terminal domain); made in house
T8 sequence (P56470 194-323 limits assumed): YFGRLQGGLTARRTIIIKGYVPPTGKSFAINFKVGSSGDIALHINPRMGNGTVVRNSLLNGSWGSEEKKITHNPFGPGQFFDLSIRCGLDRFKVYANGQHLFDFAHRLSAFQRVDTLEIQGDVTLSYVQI
Experimental: as §1, §2

galectin-7 = target: T9, galectin-7 (Homo sapiens, UniProt P47929); test: Competitive fluorescence polarization assay, galectin-7; type: binding; details: mean ± SEM of n = 4–8
T9 construct: made in house
Experimental: as §1, §2

galectin-2 = target: T10, galectin-2 (Homo sapiens, UniProt P05162); test: Competitive fluorescence polarization assay, galectin-2; type: binding; details: mean ± SEM of n = 4–8
T10 sequence (P05162 1-132): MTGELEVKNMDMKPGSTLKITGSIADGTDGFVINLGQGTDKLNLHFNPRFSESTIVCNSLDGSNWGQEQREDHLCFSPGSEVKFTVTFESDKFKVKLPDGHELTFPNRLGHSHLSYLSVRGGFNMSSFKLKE

[7] = target: T7, galectin-8N (galectin-8 N-terminal domain); details: cited from earlier work

T3 sequence (O00182 227-355 limits assumed): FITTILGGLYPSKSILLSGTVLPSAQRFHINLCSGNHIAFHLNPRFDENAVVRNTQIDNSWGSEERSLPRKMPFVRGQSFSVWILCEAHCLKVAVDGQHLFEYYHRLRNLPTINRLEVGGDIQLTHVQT
T2 sequence (P17931 whole entry): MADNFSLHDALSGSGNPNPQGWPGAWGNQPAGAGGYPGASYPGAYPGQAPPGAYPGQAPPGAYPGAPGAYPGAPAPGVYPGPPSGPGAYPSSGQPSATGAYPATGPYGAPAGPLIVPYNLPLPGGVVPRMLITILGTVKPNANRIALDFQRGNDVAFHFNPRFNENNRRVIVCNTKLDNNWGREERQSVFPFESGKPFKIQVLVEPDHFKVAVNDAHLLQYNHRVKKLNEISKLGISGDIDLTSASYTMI
T5 sequence (P09382 whole entry): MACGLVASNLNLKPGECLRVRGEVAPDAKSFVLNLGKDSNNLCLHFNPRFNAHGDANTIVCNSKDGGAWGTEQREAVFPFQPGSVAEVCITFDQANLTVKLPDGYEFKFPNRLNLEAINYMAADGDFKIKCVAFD
T6 sequence (O00182 17-148 limits assumed): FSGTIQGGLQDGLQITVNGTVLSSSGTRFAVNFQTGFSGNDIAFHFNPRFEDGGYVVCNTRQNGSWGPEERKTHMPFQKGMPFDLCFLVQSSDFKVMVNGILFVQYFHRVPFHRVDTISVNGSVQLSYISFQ
T9 sequence (P47929 whole entry): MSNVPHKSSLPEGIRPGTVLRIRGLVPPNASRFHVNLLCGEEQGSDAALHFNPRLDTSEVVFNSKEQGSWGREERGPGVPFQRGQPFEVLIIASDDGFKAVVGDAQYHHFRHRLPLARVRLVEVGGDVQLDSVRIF

Compound	Kd [1] [mM]	Kd (galectin-3) [mM]	Kd [2] [mM]	Kd [3] [mM]	Kd (galectin-1) [mM]	Kd [4] [mM]	higher affinity for galectin-8N compared to the methyl β-D-galactopyranoside [5] [fold]	Kd [5] [µM]	Kd [6] [mM]	Kd (galectin-7) [mM]	Kd (galectin-2) [mM]	Kd [7] [µM]
OC[C@H]1OC=C[C@@H](O)[C@H]1O [compound 3, D-galactal]	4.1 ± 0.47	3.3 ± 0.65	4.8	2.4 ± 0.013	1.6 ± 0.14	> 1.5	5	1300 ± 72	5.3			
O=C(O)c1ccc2ccc(CO[C@@H]3C=CO[C@H](CO)[C@@H]3O)nc2c1 [compound 9]	4.7 ± 0.022	0.59 ± 0.078	> 1.5	> 1.5	3.6	1.8 ± 0.16		48 ± 6	2.8 ± 0.77	> 1.5	1.1 ± 0.2	
methyl β-D-galactomalonyl phenyl ester												5.7

Further lines, with some results ahead:

Kd [1] [mM]	Kd (galectin-3) [mM]	Kd [2] [mM]	Kd [3] [mM]	Kd (galectin-1) [mM]	Kd [4] [mM]	higher affinity for galectin-8N compared to the methyl β-D-galactopyranoside [5] [fold]	Kd [5] [µM]	Kd [6] [mM]	Kd (galectin-7) [mM]	Kd (galectin-2) [mM]	Compound	Kd [7] [µM]
3 ± 0.03	0.77 ± 0.129	> 1.5	3.6	1.1 ± 0.087	> 1.5		810 ± 54	2.5 ± 0.3			Cn1c(CO[C@@H]2C=CO[C@H](CO)[C@@H]2O)nc2cc(C(=O)O)ccc21 [6b]	
3 ± 0.3	1.2 ± 0.287	> 1.5	3.2	> 1.5	> 1.5		180 ± 19	2.5			COC(=O)c1ccc2nc(CO[C@@H]3C=CO[C@H](CO)[C@@H]3O)[nH]c2c1 [5c]	
3 ± 0.38	1.3 ± 0.13		1.7 ± 0.06	2.2 ± 0.138	> 1.5		400 ± 34	2.6 ± 0.23			COC(=O)c1ccc2nc(CO[C@@H]3C=CO[C@H](CO)[C@@H]3O)n(C)c2c1 [5a]	
